Reference: ChEMBL document CHEMBL1671689, “Activity of ceftaroline against recent emerging serotypes of Streptococcus pneumoniae in the United States” (2010)
Values after ≈ are worked out from the molar mass of the structure shown.

Columns and labels:
Format in all cases: functional
[1] = system: Streptococcus pneumoniae; assay: Antimicrobial activity against Streptococcus pneumoniae serotype 35B by broth microdilution method in presence of beta-lactamase inhibitor clavulanic acid
[2] = system: Streptococcus pneumoniae; assay: Antimicrobial activity against multiple drug resistant Streptococcus pneumoniae serotype 6B by broth microdilution method in presence of beta-lactamase inhibitor clavulanic acid
[3] = system: Streptococcus pneumoniae; assay: Antimicrobial activity against Streptococcus pneumoniae serotype 19A by broth microdilution method in presence of beta-lactamase inhibitor clavulanic acid
[4] = system: Streptococcus pneumoniae; assay: Antimicrobial activity against Streptococcus pneumoniae serotype 19A assessed as percent susceptible isolates by broth microdilution method in presence of beta-lactamase inhibitor clavulanic acid
[5] = system: Streptococcus pneumoniae; assay: Antimicrobial activity against Streptococcus pneumoniae serotype 6C assessed as percent susceptible isolates by broth microdilution method in presence of beta-lactamase inhibitor clavulanic acid
[6] = system: Streptococcus pneumoniae; assay: Antimicrobial activity against multiple drug resistant Streptococcus pneumoniae serotype 6B assessed as percent susceptible isolates by broth microdilution method in presence of beta-lactamase inhibitor clavulanic acid
[7] = system: Streptococcus pneumoniae; assay: Antimicrobial activity against Streptococcus pneumoniae serotype 3 assessed as percent susceptible isolates by broth microdilution method in presence of beta-lactamase inhibitor clavulanic acid
[8] = system: Streptococcus pneumoniae; assay: Antimicrobial activity against Streptococcus pneumoniae serotype 22F assessed as percent susceptible isolates by broth microdilution method in presence of beta-lactamase inhibitor clavulanic acid
[9] = system: Streptococcus pneumoniae; assay: Antimicrobial activity against multiple drug resistant Streptococcus pneumoniae serotype 19A assessed as percent susceptible isolates by broth microdilution method in presence of beta-lactamase inhibitor clavulanic acid
[10] = system: Streptococcus pneumoniae; assay: Antimicrobial activity against multiple drug resistant Streptococcus pneumoniae serotype 19F assessed as percent susceptible isolates by broth microdilution method in presence of beta-lactamase inhibitor clavulanic acid
[11] = system: Streptococcus pneumoniae; assay: Antimicrobial activity against Streptococcus pneumoniae serotype 11A by broth microdilution method in presence of beta-lactamase inhibitor clavulanic acid
[12] = system: Streptococcus pneumoniae; assay: Antimicrobial activity against Streptococcus pneumoniae serotype 7F by broth microdilution method in presence of beta-lactamase inhibitor clavulanic acid
[13] = system: Streptococcus pneumoniae; assay: Antimicrobial activity against Streptococcus pneumoniae serotype 11A assessed as percent susceptible isolates by broth microdilution method in presence of beta-lactamase inhibitor clavulanic acid
[14] = system: Streptococcus pneumoniae; assay: Antimicrobial activity against Streptococcus pneumoniae serotype 35B assessed as percent susceptible isolates by broth microdilution method in presence of beta-lactamase inhibitor clavulanic acid
[15] = system: Streptococcus pneumoniae; assay: Antimicrobial activity against Streptococcus pneumoniae serotype 3 by broth microdilution method in presence of beta-lactamase inhibitor clavulanic acid
[16] = system: Streptococcus pneumoniae; assay: Antimicrobial activity against multiple drug resistant Streptococcus pneumoniae serotype 19F by broth microdilution method in presence of beta-lactamase inhibitor clavulanic acid
[17] = system: Streptococcus pneumoniae; assay: Antimicrobial activity against Streptococcus pneumoniae serotype 6C by broth microdilution method in presence of beta-lactamase inhibitor clavulanic acid
[18] = system: Streptococcus pneumoniae; assay: Antimicrobial activity against Streptococcus pneumoniae serotype 23A assessed as percent susceptible isolates by broth microdilution method in presence of beta-lactamase inhibitor clavulanic acid
[19] = system: Streptococcus pneumoniae; assay: Antimicrobial activity against Streptococcus pneumoniae serotype 23B assessed as percent susceptible isolates by broth microdilution method in presence of beta-lactamase inhibitor clavulanic acid
[20] = system: Streptococcus pneumoniae; assay: Antimicrobial activity against multiple drug resistant Streptococcus pneumoniae serotype 19A by broth microdilution method in presence of beta-lactamase inhibitor clavulanic acid
[21] = system: Streptococcus pneumoniae; assay: Antimicrobial activity against Streptococcus pneumoniae serotype 15A assessed as percent susceptible isolates by broth microdilution method
[22] = system: Streptococcus pneumoniae; assay: Antimicrobial activity against Streptococcus pneumoniae serotype 15A assessed as percent susceptible isolates by broth microdilution method in presence of beta-lactamase inhibitor clavulanic acid
[23] = system: Streptococcus pneumoniae; assay: Antimicrobial activity against Streptococcus pneumoniae serotype 7F assessed as percent susceptible isolates by broth microdilution method in presence of beta-lactamase inhibitor clavulanic acid
[24] = system: Streptococcus pneumoniae; assay: Antimicrobial activity against Streptococcus pneumoniae serotype 19F assessed as percent susceptible isolates by broth microdilution method in presence of beta-lactamase inhibitor clavulanic acid
[25] = system: Streptococcus pneumoniae; assay: Antimicrobial activity against Streptococcus pneumoniae serotype 3 by broth microdilution method
[26] = system: Streptococcus pneumoniae; assay: Antimicrobial activity against Streptococcus pneumoniae serotype 7F by broth microdilution method
[27] = system: Streptococcus pneumoniae; assay: Antimicrobial activity against Streptococcus pneumoniae serotype 11A by broth microdilution method
[28] = system: Streptococcus pneumoniae; assay: Antimicrobial activity against multiple drug resistant Streptococcus pneumoniae serotype 6B assessed as percent susceptible isolates by broth microdilution method
[29] = system: Streptococcus pneumoniae; assay: Antimicrobial activity against Streptococcus pneumoniae serotype 11A assessed as percent susceptible isolates by broth microdilution method
[30] = system: Streptococcus pneumoniae; assay: Antimicrobial activity against Streptococcus pneumoniae serotype 19F assessed as percent susceptible isolates by broth microdilution method
[31] = system: Streptococcus pneumoniae; assay: Antimicrobial activity against Streptococcus pneumoniae serotype 35B assessed as percent susceptible isolates by broth microdilution method
[32] = system: Streptococcus pneumoniae; assay: Antimicrobial activity against Streptococcus pneumoniae serotype 7F assessed as percent susceptible isolates by broth microdilution method
[33] = system: Streptococcus pneumoniae; assay: Antimicrobial activity against multiple drug resistant Streptococcus pneumoniae serotype 19F by broth microdilution method
[34] = system: Streptococcus pneumoniae; assay: Antimicrobial activity against Streptococcus pneumoniae serotype 23A assessed as percent susceptible isolates by broth microdilution method
[35] = system: Streptococcus pneumoniae; assay: Antimicrobial activity against Streptococcus pneumoniae serotype 19A assessed as percent susceptible isolates by broth microdilution method
[36] = system: Streptococcus pneumoniae; assay: Antimicrobial activity against Streptococcus pneumoniae serotype 6C by broth microdilution method
[37] = system: Streptococcus pneumoniae; assay: Antimicrobial activity against Streptococcus pneumoniae serotype 23B assessed as percent susceptible isolates by broth microdilution method
[38] = system: Streptococcus pneumoniae; assay: Antimicrobial activity against Streptococcus pneumoniae serotype 6C assessed as percent susceptible isolates by broth microdilution method
[39] = system: Streptococcus pneumoniae; assay: Antimicrobial activity against multiple drug resistant Streptococcus pneumoniae serotype 19F assessed as percent susceptible isolates by broth microdilution method
[40] = system: Streptococcus pneumoniae; assay: Antimicrobial activity against multiple drug resistant Streptococcus pneumoniae serotype 19A by broth microdilution method
[41] = system: Streptococcus pneumoniae; assay: Antimicrobial activity against Streptococcus pneumoniae serotype 3 assessed as percent susceptible isolates by broth microdilution method
[42] = system: Streptococcus pneumoniae; assay: Antimicrobial activity against Streptococcus pneumoniae serotype 19A by broth microdilution method
[43] = system: Streptococcus pneumoniae; assay: Antimicrobial activity against multiple drug resistant Streptococcus pneumoniae serotype 19A assessed as percent susceptible isolates by broth microdilution method
[44] = system: Streptococcus pneumoniae; assay: Antimicrobial activity against Streptococcus pneumoniae serotype 35B by broth microdilution method
[45] = system: Streptococcus pneumoniae; assay: Antimicrobial activity against multiple drug resistant Streptococcus pneumoniae serotype 6B by broth microdilution method
[46] = system: Streptococcus pneumoniae; assay: Antimicrobial activity against Streptococcus pneumoniae serotype 22F assessed as percent susceptible isolates by broth microdilution method

CC1(C)S[C@@H]2[C@H](NC(=O)[C@H](N)c3ccc(O)cc3)C(=O)N2[C@H]1C(=O)O [AMOXICILLIN]
MIC50 [1]: 2 µg/mL | MIC90 [1]: 4 µg/mL | MIC50 [2]: 8 µg/mL | MIC90 [2]: 16 µg/mL | MIC50 [3]: 8 µg/mL | MIC90 [3]: 8 µg/mL | Activity [4]: 45% | Activity [5]: 100% | Activity [6]: 8.1% | Activity [7]: 100% | Activity [8]: 100% | Activity [9]: 8.1% | Activity [10]: 8.1% | MIC [11]: ≤ 1 µg/mL | MIC50 [11]: ≤ 1 µg/mL | MIC90 [11]: ≤ 1 µg/mL | MIC [12]: ≤ 1 µg/mL | MIC50 [12]: ≤ 1 µg/mL | MIC90 [12]: ≤ 1 µg/mL | Activity [13]: 98% | Activity [14]: 62.7% | MIC [15]: ≤ 1 µg/mL | MIC50 [15]: ≤ 1 µg/mL | MIC90 [15]: ≤ 1 µg/mL | MIC50 [16]: 8 µg/mL | MIC90 [16]: 16 µg/mL | MIC [17]: ≤ 1 µg/mL | MIC50 [17]: ≤ 1 µg/mL | MIC90 [17]: ≤ 1 µg/mL | Activity [18]: 100% | Activity [19]: 100% | MIC50 [20]: 8 µg/mL | MIC90 [20]: 16 µg/mL | Activity [21]: 100% | Activity [22]: 100% | Activity [23]: 62.7% | Activity [24]: 37.9%

C[C@@H](O)[C@H]1C(=O)N2C(C(=O)O)=C(SCCNC=N)C[C@H]12 [IMIPENEM ANHYDROUS]
MIC [25]: ≤ 0.12 µg/mL | MIC50 [25]: ≤ 0.12 µg/mL | MIC90 [25]: ≤ 0.12 µg/mL | MIC [26]: ≤ 0.12 µg/mL | MIC50 [26]: ≤ 0.12 µg/mL | MIC90 [26]: ≤ 0.12 µg/mL | MIC [27]: ≤ 0.12 µg/mL | MIC50 [27]: ≤ 0.12 µg/mL | MIC90 [27]: ≤ 0.12 µg/mL | Activity [28]: 0.8% | Activity [29]: 95.9% | Activity [30]: 20.7% | Activity [31]: 15.3% | Activity [32]: 15.3% | MIC50 [33]: 1 µg/mL (≈ 3.34 µM) | MIC90 [33]: 1 µg/mL (≈ 3.34 µM) | Activity [34]: 100% | Activity [35]: 40.2% | MIC [36]: ≤ 0.12 µg/mL | MIC50 [36]: ≤ 0.12 µg/mL | MIC90 [36]: ≤ 0.12 µg/mL | Activity [37]: 100% | Activity [38]: 90.7% | Activity [39]: 0.8% | MIC50 [40]: 1 µg/mL (≈ 3.34 µM) | MIC90 [40]: 1 µg/mL (≈ 3.34 µM) | Activity [41]: 100% | MIC50 [42]: 0.5 µg/mL (≈ 1.67 µM) | MIC90 [42]: 1 µg/mL (≈ 3.34 µM) | Activity [43]: 0.8% | Activity [21]: 100% | MIC50 [44]: 0.25 µg/mL (≈ 0.835 µM) | MIC90 [44]: 0.5 µg/mL (≈ 1.67 µM) | MIC50 [45]: 1 µg/mL (≈ 3.34 µM) | MIC90 [45]: 1 µg/mL (≈ 3.34 µM) | Activity [46]: 100%

C[C@H]1COc2c(N3CCN(C)CC3)c(F)cc3c(=O)c(C(=O)O)cn1c23.C[C@H]1COc2c(N3CCN(C)CC3)c(F)cc3c(=O)c(C(=O)O)cn1c23.O [LEVOFLOXACIN]
MIC50 [25]: 1 µg/mL | MIC90 [25]: 1 µg/mL | MIC50 [26]: 1 µg/mL | MIC90 [26]: 1 µg/mL | MIC50 [27]: 1 µg/mL | MIC90 [27]: 2 µg/mL | Activity [28]: 99.2% | Activity [29]: 100% | Activity [30]: 96.6% | Activity [31]: 98.3% | Activity [32]: 98.3% | MIC50 [33]: 1 µg/mL | MIC90 [33]: 1 µg/mL | Activity [34]: 100% | Activity [35]: 100% | MIC50 [36]: 1 µg/mL | MIC90 [36]: 1 µg/mL | Activity [37]: 97% | Activity [38]: 100% | Activity [39]: 99.2% | MIC50 [40]: 1 µg/mL | MIC90 [40]: 1 µg/mL | Activity [41]: 100% | MIC50 [42]: 1 µg/mL | MIC90 [42]: 1 µg/mL | Activity [43]: 99.2% | Activity [21]: 100% | MIC50 [44]: 1 µg/mL | MIC90 [44]: 1 µg/mL | MIC50 [45]: 1 µg/mL | MIC90 [45]: 1 µg/mL | Activity [46]: 100%
